In BigSolDB 2.1:

Settings: in water

O=C(O)CCCC(=O)O
Settings | solubility (mole fraction)
288.05 K | 0.125
292.95 K | 0.151
297.85 K | 0.176
303.25 K | 0.204
308.05 K | 0.232
312.95 K | 0.26
318.05 K | 0.297
322.25 K | 0.328
326.75 K | 0.361
330.85 K | 0.4
